Laboratory results published in US20180110780A1, “AGENT FOR ALLEVIATING SIDE EFFECT OF ANTITUMOR DRUG” (TAIHO PHARMACEUTICAL CO., LTD., priority 2015, published 2018).

System: BALB/cA Jcl-nu mice transplanted with human lung cancer cell line NCI-H441
Assay: Toxicity alleviating effect against pemetrexed in tumor-bearing mouse
Conditions: deaths/animals during the test, pemetrexed 50 mg/kg/day, Compound 1 600 mg/kg/day
Procedure: Cells of a human lung cancer cell line, NCI-H441, were suspended in a PBS containing 50% [sequence], and the suspension was transplanted subcutaneously into the right-side chest of each of 8-week old BALB/cA Jcl-nu mice (Crea-Japan, Inc.) in an amount of 5×10^6 cells/0.1 mL/body. At the time when the average tumor volume after grouping became more than 100 mm^3, the major axis and the minor axis of the tumor were measured, and grouping was performed such that there would be no fluctuations in the tumor volumes of the various groups (6 animals per group). Furthermore, the mice were maintained under conditions of low-folic acid feed breeding from the age of 5 weeks to the day of test completion.
Pemetrexed (manufactured by LC Laboratories, Inc.) was dissolved in physiological saline, and the solution was administered through the caudal vein on Day 1, which was the day after the day of grouping, and on Day 8, which was one week thereafter. Furthermore, Compound 1 was suspended in a 0.5% aqueous solution of hydroxypropylmethyl cellulose, and the suspension was orally administered once a day for 14 consecutive days from the day after the day of grouping. […]
After grouping, the body weights (BW) were measured twice a week, and the rate of bodyweight change (bodyweight change; BWC) was calculated by the following formula, the toxicity alleviating effect was evaluated. […]

`Nc1nc2[nH]cc(CCc3ccc(C(=O)N[C@@H](CCC(=O)O)C(=O)O)cc3)c2c(=O)[nH]1` [Pemetrexed] was tested, and the “No. of Death” value was 1/6 and the “No. of Death” value (listed as pemetrexed) was “one death case out of six animals”.
